Common to all, as to assay: steady-state tryptophan fluorescence quenching titration in PBS
What all share (assay type): binding

Assay [1] addresses T1, bovine serum albumin (BSA) (Bos taurus, UniProt P02769).
Assay [2] deals with hen egg-white lysozyme (HEWL) (Gallus gallus, UniProt P00698).
Assay [3] addresses T1, bovine serum albumin (BSA). The source holds these as a separate data set.

Where a name gives a salt, the structure may show the parent alone. Read-outs that look alike come from different tables or passages of the source.

T1 sequence (P02769 25-607): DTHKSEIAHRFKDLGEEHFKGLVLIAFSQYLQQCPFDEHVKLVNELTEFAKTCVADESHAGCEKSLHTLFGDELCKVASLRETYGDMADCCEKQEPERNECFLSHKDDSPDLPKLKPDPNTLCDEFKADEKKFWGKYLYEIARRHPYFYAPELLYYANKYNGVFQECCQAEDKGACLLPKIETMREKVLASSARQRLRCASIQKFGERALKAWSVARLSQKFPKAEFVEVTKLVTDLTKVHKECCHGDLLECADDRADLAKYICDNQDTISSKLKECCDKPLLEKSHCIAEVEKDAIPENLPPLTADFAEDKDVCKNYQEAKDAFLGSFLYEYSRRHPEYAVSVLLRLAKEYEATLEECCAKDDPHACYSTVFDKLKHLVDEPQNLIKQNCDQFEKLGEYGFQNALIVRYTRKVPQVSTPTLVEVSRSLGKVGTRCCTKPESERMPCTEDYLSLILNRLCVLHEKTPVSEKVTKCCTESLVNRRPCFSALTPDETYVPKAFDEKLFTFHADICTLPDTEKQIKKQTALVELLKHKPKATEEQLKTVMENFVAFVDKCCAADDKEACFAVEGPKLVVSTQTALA
hen egg-white lysozyme (HEWL), sequence (P00698 19-147): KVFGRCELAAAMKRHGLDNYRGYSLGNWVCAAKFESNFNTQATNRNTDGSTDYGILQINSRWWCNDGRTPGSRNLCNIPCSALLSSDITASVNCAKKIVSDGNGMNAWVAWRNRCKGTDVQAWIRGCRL

`COc1cccc2c1C(=O)c1c(O)c3c(c(O)c1C2=O)C[C@@](O)(C(=O)CO)C[C@@H]3O[C@H]1C[C@H](N)[C@H](O)[C@H](C)O1` [Doxorubicin] displayed a dissociation constant Kd in assay [1] of 16.5 ± 2.5 µM. Molecule `CCN(CC)CCCC(C)Nc1c2ccc(Cl)cc2nc2ccc(OC)cc12` (stereo not shown) [Quinacrine dihydrochloride] gave a dissociation constant Kd in assay [1] of 4.6 ± 1.1 µM.

Regarding `Cn1cc(C2=C(c3ccc(Cl)cc3Cl)C(=O)NC2=O)c2ccccc21` [SB216763], the Kd in assay [2] is 1.7 ± 0.7 µM; in assay [3] it was 5.2 ± 1.2 µM.

Values taken from paper PMC9490042 (iScience, 2022).
